Experimental data published in US20240148821A1, “PHARMACEUTICAL USE OF CYCLIC PEPTIDE COMPOUND” (CHUGAI SEIYAKU KABUSHIKI KAISHA, priority 2021, published 2024).
Numbered stars: 1 amine (or outer) side, 2 acyl side, 3 side chain; on linkers, the order of the positions; unused ones are H or OH. Bridge positions count the residues as written; N and C are the ends. Square brackets hold non-standard residues; d marks the D form. Peptide text beside a SMILES is read from it. * marks the point of attachment. hPhe(3-Cl-4-CF3) = N[C@@H](CCc1ccc(C(F)(F)F)c(Cl)c1)C(=O)O; hPhe(3-F,4-CF3) = N[C@@H](CCc1ccc(C(F)(F)F)c(F)c1)C(=O)O; X16 = CS(=O)(=O)c1ccc(CC[C@H](N[*:1])C(=O)[*:2])cc1; NEtPhe(4-Cl) = CCN[C@@H](Cc1ccc(Cl)cc1)C(=O)O; NMePhe(4-Cl) = CN[C@@H](Cc1ccc(Cl)cc1)C(=O)O; NMedβ3hAla = C[C@H](CC(=O)[*:2])N(C)[*:1]; NMeGly(cPent) = CN[C@H](C(=O)O)C1CCCC1; NMeCha = CN[C@@H](CC1CCCCC1)C(=O)O; NMeChg = CN[C@H](C(=O)O)C1CCCCC1; NMeF = CN[C@@H](Cc1ccccc1)C(=O)O; NMeI = CC[C@H](C)[C@H](NC)C(=O)O; NMeD = CN[C@@H](CC(=O)O)C(=O)O; NMeL = CN[C@@H](CC(C)C)C(=O)O; NMeV = CN[C@H](C(=O)O)C(C)C; NMeAbu = CC[C@H](NC)C(=O)O; NMeS = CN[C@@H](CO)C(=O)O; Morpholide = C1CN(*)CCO1; NMeA = CN[C@@H](C)C(=O)O; NMeAib = CNC(C)(C)C(=O)O; Nle = CCCC[C@H](N)C(=O)O; Piperidide = C1CCN(*)CC1; dNMeA = CN[C@H](C)C(=O)O; Ac5c = NC1(C(=O)O)CCCC1; Aze = O=C(O)[C@@H]1CCN1; Sar = CNCC(=O)O

What was measured:
[1] = biological target: protein-protein interaction between Kras and SOS1 (biotin-tagged human Kras loaded with GDP, His-tagged human SOS1) (Homo sapiens (Human), UniProt P01116, G12D); assay: Protein-protein interaction inhibition between Kras and SOS1 (KrasG12D-SOS PPI) using AlphaScreen; format: biochemical; conditions: AlphaScreen; biotin-tagged human Kras loaded with GDP, His-tagged human SOS1; read-out: KRAS G12D-SOS PPI IC50;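 also: kras produced in E. coli, Ni-coupled donor beads and streptavidin acceptor beads, excitation 680 nm with emission detected at 520–620 nm via singlet oxygen transfer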
[2] = test system: Human pancreatic cancer cell line AsPC-1 (G12D mutation Kras); assay: AsPC-1 cell growth inhibition (AsPC-1 CGI); format: cell-based; conditions: read-out: AsPC-1 cell growth inhibition, 50% growth inhibitory concentration (IC50 value); 96 hours, CellTiter-Glo, values classified in ranges
Description: Test compounds were serially dilated with dimethyl sulfoxide, and 200 nL was then dispensed to a U-bottom 96-well plate using Labcyte Echo. […] The cell suspension was dispensed to a. plate containing a test compound at 100 μL per well and incubated at 37° C. in a 5% carbon dioxide gas incubator. 96 hours later, 80 μL of CellTiter-Glo (Promega) was added to each well and fluorescence was measured.

SMILES	IC50 [1]	IC50 [2]
CC[C@H](C)[C@@H]1NC(=O)[C@H](CC(C)C)N(C)C(=O)C[C@@H](C(=O)N2CCCCC2)N(C)C(=O)[C@H](C(C)C)N(C)C(=O)C2(CCCC2)NC(=O)[C@@H]2CCCN2C(=O)[C@H](CCc2ccc(C(F)(F)F)c(Cl)c2)NC(=O)CN(C)C(=O)[C@H](COC)N(C)C(=O)[C@@H]2CCN2C(=O)[C@H](C)N(C)C1=O [Compound 487] ([NMeL]I[NMeA][Aze][NMeS](Me)[Sar][hPhe(3-Cl-4-CF3)]P[Ac5c][NMeV][NMeD]-Piperidide; lactam N-11)	5.9 nM	> 500 nM
CCCC[C@@H]1NC(=O)[C@H](CCc2ccc(C(F)(F)F)c(F)c2)NC(=O)CN(C)C(=O)[C@H](Cc2ccc(Cl)cc2)N(CC)C(=O)CN(C)C(=O)CN(C)C(=O)[C@H]([C@@H](C)CC)NC(=O)[C@H](CC(C)C)N(C)C(=O)C[C@@H](C)N(C)C(=O)[C@H](CC(C)C)NC(=O)C(C)(C)N(C)C1=O [Compound 257] (cyclo(I[Sar][Sar][NEtPhe(4-Cl)][Sar][hPhe(3-F,4-CF3)][Nle][NMeAib]L[NMedβ3hAla][NMeL]))	97 nM	> 500 nM
CC[C@H](C)[C@@H]1NC(=O)[C@H](CC(C)C)N(C)C(=O)C[C@@H](C(=O)N2CCCCC2)N(C)C(=O)[C@H](CC)N(C)C(=O)C2(CCCC2)NC(=O)[C@@H]2CCCN2C(=O)[C@H](CCc2ccc(C(F)(F)F)c(Cl)c2)NC(=O)CN(C)C(=O)[C@H](CC2CCCCC2)N(C)C(=O)[C@@H]2CCN2C(=O)[C@H](C)N(C)C1=O [Compound 1678] ([NMeL]I[NMeA][Aze][NMeCha][Sar][hPhe(3-Cl-4-CF3)]P[Ac5c][NMeAbu][NMeD]-Piperidide; lactam N-11)	26 nM	> 500 nM
CC[C@H](C)[C@@H]1NC(=O)[C@H](CC(C)C)N(C)C(=O)C[C@@H](C(=O)N2CCCCC2)N(C)C(=O)[C@H](C2CCCCC2)N(C)C(=O)C2(CCCC2)NC(=O)[C@@H]2CCCN2C(=O)[C@H](CCc2ccc(S(C)(=O)=O)cc2)NC(=O)CN(C)C(=O)[C@H](CC2CCCCC2)N(C)C(=O)CN(C)C(=O)CN(C)C1=O [Compound 2058, (3S,9S,18S,21S,25S,28S,34S)-28-cyclohexyl-9-(cyclohexylmethyl)-21-isobutyl-7,10,13,16,22,26,29-heptamethyl-18-[(1S)-1-methylpropyl]-3-[2-(4-methylsulfonylphenyl)ethyl]-25-(piperidine-1-carbonyl)spiro[1,4,7,10,13,16,19,22,26,29,32-undecazabicyclo[32.3.0]heptatriacontane-31,1′-cyclopentane]-2,5,8,11,14,17,20,23,27,30,33-undecone] ([NMeL]I[Sar][Sar][NMeCha][Sar][X16]P[Ac5c][NMeChg][NMeD]-Piperidide; lactam N-11)	380 nM	> 500 nM
CC[C@H](C)[C@@H]1NC(=O)[C@H](CC(C)C)N(C)C(=O)C[C@@H](C(=O)N2CCCCC2)N(C)C(=O)[C@H](C(C)C)N(C)C(=O)C2(CCCC2)NC(=O)[C@H](C)N(C)C(=O)[C@H](CCc2ccc(C(F)(F)F)c(Cl)c2)NC(=O)CN(C)C(=O)[C@H](CC2CCCCC2)N(C)C(=O)CN(C)C(=O)CN(C)C1=O [Compound 939] ([NMeL]I[Sar][Sar][NMeCha][Sar][hPhe(3-Cl-4-CF3)][NMeA][Ac5c][NMeV][NMeD]-Piperidide; lactam N-11)	8 nM	> 500 nM
CC[C@H](C)[C@@H]1NC(=O)[C@H](CC(C)C)N(C)C(=O)C[C@@H](C)N(C)C(=O)[C@H](CC(C)C)NC(=O)C(C)(C)N(C)C(=O)[C@H](C(C)C)NC(=O)[C@H](CCc2ccc(C(F)(F)F)c(F)c2)NC(=O)CN(C)C(=O)[C@H](Cc2ccc(Cl)cc2)N(C)C(=O)CN(C)C(=O)CN(C)C1=O [Compound 1054] (cyclo(I[Sar][Sar][NMePhe(4-Cl)][Sar][hPhe(3-F,4-CF3)]V[NMeAib]L[NMedβ3hAla][NMeL]))	120 nM	> 500 nM
CC[C@H](C)[C@@H]1NC(=O)[C@H](CC(C)C)N(C)C(=O)C[C@@H](C(=O)N2CCOCC2)N(C)C(=O)[C@H]([C@@H](C)CC)N(C)C(=O)C2(CCCC2)NC(=O)[C@@H]2CCCN2C(=O)[C@H](CCc2ccc(C(F)(F)F)c(Cl)c2)NC(=O)CN(C)C(=O)[C@H](C2CCCC2)N(C)C(=O)[C@@H]2CCN2C(=O)[C@H](C)N(C)C1=O [Compound 381] ([NMeL]I[NMeA][Aze][NMeGly(cPent)][Sar][hPhe(3-Cl-4-CF3)]P[Ac5c][NMeI][NMeD]-Morpholide; lactam N-11)	1.6 nM	≤ 20 nM
CC[C@H](C)[C@@H]1NC(=O)[C@H](C)N(C)C(=O)C[C@@H](C(=O)N2CCCCC2)N(C)C(=O)[C@H](C(C)C)N(C)C(=O)C2(CCCC2)NC(=O)[C@@H]2CCCN2C(=O)[C@H](CCc2ccc(C(F)(F)F)c(Cl)c2)NC(=O)[C@@H](C)N(C)C(=O)[C@H](Cc2ccccc2)N(C)C(=O)[C@@H]2CCN2C(=O)[C@H](C)N(C)C1=O [Compound 1724] ([NMeA]I[NMeA][Aze][NMeF][dNMeA][hPhe(3-Cl-4-CF3)]P[Ac5c][NMeV][NMeD]-Piperidide; lactam N-11)	16 nM	> 500 nM
